Reference: patent US5204462A, “4H-3,1-benzoxazin-4-one derivative” (Japan Tobacco, Inc., priority 1990, dated 1993)

Legend:
Format in all cases: biochemical
[1] = target: T1, human leukocyte elastase (HLE) (Homo sapiens, UniProt P08246); experiment: Test 1: Measurement of inhibitory activity against HLE; settings: MeO-Suc-Ala-Ala-Pro-Val-pNA substrate, pH 8.6, 37° C., 10 min after mixing enzyme and inhibitor, steady state rate
T1 construct: HLE was purified according to the method described by A. J. Barrett; from tissue; host or cells: purified from natural human material by Barrett's method (Methods in Enzymology 80, 581-588, 1981)
T1 sequence (P08246 30-247 limits assumed): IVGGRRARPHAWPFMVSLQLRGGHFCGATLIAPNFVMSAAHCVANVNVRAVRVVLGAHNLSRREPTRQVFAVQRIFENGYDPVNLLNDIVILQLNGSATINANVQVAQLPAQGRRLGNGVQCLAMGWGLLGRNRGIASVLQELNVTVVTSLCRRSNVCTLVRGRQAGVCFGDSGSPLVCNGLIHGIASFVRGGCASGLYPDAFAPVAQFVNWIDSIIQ
Experimental: (§1) In order to investigate the serine protease inhibiting activity of the 4H-3,1-benzoxazin-4-one derivatives according to the present invention, human leukocyte elastase (HLE), bovine α-chymotrypsin (CYT), and human cathepsin G (HCG) were used in accordance with the following methods.
(§2) Note that the 4H-3,1-benzoxazin-4-one derivative of the present invention was dissolved in dimethylsulfoxide (DMSO) to adjust to the concentration to 1 mg/ml. This solution was serially diluted with DMSO, and twice the volume of measurement buffer was added to these DMSO solutions to provide the inhibitor solution. Test 1: Measurement of inhibitory activity against HLE
0.2M tris-hydrochloride buffer (pH=8.6)
HLE was purified according to the method described by A. J. Barrett ("Methods in Enzymology", Vol. 80, pp. 581 to 588, 1981) and adjusted to a concentration of 190 nM with measurement buffer. This solution was used as the enzyme solution.
Methoxysuccinyl-L-alanyl-L-alanyl-L-prolyl-L-valyl-paranitroanilide (Funakoshi Co. Ltd., Tokyo, Japan) as enzyme substrate was dissolved and adjusted to a concentration of 5 mM with DMSO. This DMSO solution was diluted with twice the volume of measurement buffer, and then used as the substrate solution.
(§3) The enzyme solution, the substrate solution, and the inhibitor solution were pre-incubated at 37° C. for 10 minutes. The enzyme solution (140 μl) and the inhibitor solution (30 μl) were mixed in a well of a 96-well microtiter plate (Nunc Co. Ltd., Roskilde, Denmark), and the substrate solutions (30 μl) were added 10 minutes after the mixing, thereby starting the enzyme reaction. Hydrolysis of the substrate was monitored by the measurement of absorbance at 405 nm using a micro plate photometer (Corona Co. Ltd, Tokyo, Japan). The inhibitor concentration at which the activity of HLE was inhibited by 50% (IC50) was calculated from the substrate hydrolysis rate in the steady state.

human cathepsin G (HCG) = target: T2, human cathepsin G (HCG) (Homo sapiens, UniProt P08311); experiment: Test 3: Measurement of inhibitory activity against HCG; settings: MeO-Suc-Ala-Ala-Pro-Phe-pNA substrate, pH 7.5, same procedure as Test 1
T2 construct: purchased Cosmo Bio Co. Ltd., Tokyo, Japan
T2 sequence (P08311 21-244 limits assumed): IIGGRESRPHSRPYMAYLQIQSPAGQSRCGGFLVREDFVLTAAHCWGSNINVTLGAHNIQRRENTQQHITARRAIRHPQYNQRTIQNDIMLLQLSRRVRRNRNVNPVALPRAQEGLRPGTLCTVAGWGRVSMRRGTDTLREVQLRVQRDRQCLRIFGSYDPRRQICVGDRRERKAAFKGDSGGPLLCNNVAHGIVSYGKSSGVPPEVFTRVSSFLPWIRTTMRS
Experimental: as §1, §2, §3
Test 3: Measurement of inhibitory activity against HCG.
0.2M tris-hydrochloride buffer (pH=7.5)
HCG (Cosmo Bio Co. Ltd., Tokyo, Japan) was adjusted to a concentration of 190 nM with the measurement buffer. This solution was used as the enzyme solution.
Methoxysuccinyl-L-alanyl-L-alanyl-L-prolyl-L-phenylalanyl-paranitroanilide (Funakoshi) as the enzyme substrate was dissolved and adjusted to a concentration of […] with DMSO. This DMSO solution was diluted with twice the volume of the measurement buffer, and then used as the substrate solution.
IC50 against HCG was determined in the same procedure detailed in Test 1.

[2] = target: T3, bovine α-chymotrypsin (CYT) (Bos taurus, UniProt P00766); experiment: Test 2: Measurement of inhibitory activity against CYT; settings: MeO-Suc-Ala-Ala-Pro-Phe-pNA substrate, pH 8.0, same procedures as Test 1
T3 construct: purchased Sigma Co. Ltd., St. Louise, MO
Experimental: as §1, §2, §3
Test 2: Measurement of inhibitory activity against CYT.
0.2M tris-hydrochloride buffer (pH=8.0)
CYT (Sigma Co. Ltd., St. Louise, MO) was adjusted to a concentration of 190 nM with the measurement buffer. This solution was used as the enzyme solution.
Methoxysuccinyl-L-alanyl-L-alanyl-L-prolyl-L-phenylalanyl-paranitroanilide (Funakoshi) as the enzyme substrate was dissolved and adjusted to a concentration of 5 mM with DMSO. This DMSO solution was diluted with twice the volume of measurement buffer, and then used as the substrate solution.
IC50 against CYT was determined in the same procedures detailed in Test 1.

Compound | IC50 [1] [µM] | IC50 (human cathepsin G (HCG)) [µM] | IC50 [2] [µM]
Cc1cccc2nc([C@@H](NC(=O)[C@@H]3CCCN3C(=O)OCc3ccccc3)C(C)C)oc(=O)c12 [Example 1, (1'S)-2-[1'-(N-benzyloxycarbonyl-L-prolyl)amino-2'-methyl]propyl-5-methyl-4H-3,1-benzoxazin-4-one] | 0.28 | > 50 | 2.89
Cc1cccc2nc([C@@H](NC(=O)[C@@H]3C[C@@H](O)CN3C(=O)OCc3ccccc3)C(C)C)oc(=O)c12 [Example 12, (1'S)-2-[1'-(N-benzyloxycarbonyl-trans-4-hydroxy-L-prolyl)amino-2'-methyl]propyl-5-methyl-4H-3,1-benzoxazin-4-one] | 1.15 | > 200 | 10.7
Cc1cccc2nc([C@@H](NC(=O)[C@@H]3CCCN3C(=O)OC(C)(C)C)C(C)C)oc(=O)c12 [Example 2, (1'S)-2-[1'-(N-tert-butyloxycarbonyl-L-prolyl)amino-2'-methyl]propyl-5-methyl-4H-3,1-benzoxazin-4-one] | 2.72 | 26.5 | 18.3
Cc1cccc2nc([C@@H](NC(=O)[C@@H]3CCCN3C(=O)CCc3ccccc3)C(C)C)oc(=O)c12 [Example 4, (1'S)-5-methyl-2-{2'-methyl-1'-[N-(3-phenylpropionyl)-L-prolyl]amino}propyl-4H-3,1-benzoxazin-4-one] | 0.52 | > 200 | 8.69
CSCC[C@H](NC(=O)[C@@H]1CCCN1C(=O)OCc1ccccc1)c1nc2cccc(C)c2c(=O)o1 [Example 10, (1'S)-2-[1'-(N-benzyloxycarbonyl-L-prolyl)amino-3'-(methylthio)]propyl-5-methyl-4H-3,1-benzoxazin-4-one] | 0.99 | > 50 | 4.51
COC(=O)CCC(=O)N[C@@H](C)C(=O)N[C@@H](C)C(=O)N1CCC[C@H]1C(=O)N[C@H](c1nc2cccc(C)c2c(=O)o1)C(C)C [Example 6, (1'S)-2-[1'-(methoxysuccinyl-L-alanyl-L-alanyl-L-prolyl)amino-2'-methyl]propyl-5-methyl-4H-3,1-benzoxazin-4-one] | 2.98 | 15 | 22.1
Cc1cccc2nc([C@@H](NC(=O)[C@@H]3CCCN3C(=O)/C=C/c3ccccc3)C(C)C)oc(=O)c12 [Example 3, (1'S)-2-[1'-(N-cinnamoyl-L-prolyl)amino-2'-methyl]propyl-5-methyl-4H-3,1-benzoxazin-4-one] | 1.31 | > 200 | 15.6
CCCCCC(=O)N1CCC[C@H]1C(=O)N[C@H](c1nc2cccc(C)c2c(=O)o1)C(C)C [Example 5, (1'S)-2-[1'-(N-hexanoyl-L-prolyl)amino-2'-methyl]propyl-5-methyl-4H-3,1-benzoxazin-4-one] | 1.22 | > 140 | 11.3
